Assays:
Type in all cases: in vivo
kochia (Kochia scoparia) [1] = experiment: Test A postemergence; settings: Bassia scoparia, post-emergence, 240 h, 0 to 100 scale, read-out: Plant response rating, Kochia; for pest or weed control at 31 g/ha: 31 g ai/ha; for pest or weed control at 125 g/ha: 125 g ai/ha
Procedure, shortened: (§1)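 Greenhouse pot test, loam/sand soil. Formulation: non-phytotoxic solvent mix plus surfactant. Pre: directed spray onto soil after sowing. Post: plants at 1–2 leaf, 2–10 cm. Rated visually vs untreated controls at ~10 d, 0 (no effect) to 100 (complete control).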

[2] = system: galium (catchweed bedstraw, Galium aparine); experiment: Test A postemergence; settings: Galium, post-emergence, 240 h, 0 to 100 scale, read-out: Plant response rating, Galium; for pest or weed control at 31 g/ha: 31 g ai/ha; for pest or weed control at 125 g/ha: 125 g ai/ha
Procedure, shortened: as §1

[3] = system: wheat (Triticum aestivum); experiment: Test A postemergence; settings: Triticum aestivum, post-emergence, 240 h, 0 to 100 scale, read-out: Plant response rating, Wheat; for plant injury at 31 g/ha: 31 g ai/ha; for plant injury at 125 g/ha: 125 g ai/ha
Procedure, shortened: as §1

[4] = system: pigweed (Amaranthus retroflexus); experiment: Test A postemergence; settings: Amaranthus retroflexus, post-emergence, 240 h, 0 to 100 scale, read-out: Plant response rating, Pigweed; for pest or weed control at 31 g/ha: 31 g ai/ha; for pest or weed control at 125 g/ha: 125 g ai/ha
Procedure, shortened: as §1

[5] = system: barnyardgrass (Echinochloa crus-galli); experiment: Test A postemergence; settings: Echinochloa crus-galli, post-emergence, 240 h, 0 to 100 scale, read-out: Plant response rating, Barnyardgrass; for pest or weed control at 31 g/ha: 31 g ai/ha; for pest or weed control at 125 g/ha: 125 g ai/ha
Procedure, shortened: as §1

[6] = system: ragweed (common ragweed, Ambrosia elatior); experiment: Test A postemergence; settings: Ambrosia artemisiifolia, post-emergence, 240 h, 0 to 100 scale, read-out: Plant response rating, Ragweed; for pest or weed control at 31 g/ha: 31 g ai/ha; for pest or weed control at 125 g/ha: 125 g ai/ha
Procedure, shortened: as §1

[7] = system: giant foxtail (Setaria faberii); experiment: Test A postemergence; settings: Setaria faberi, post-emergence, 240 h, 0 to 100 scale, read-out: Plant response rating, Foxtail, Giant; for pest or weed control at 31 g/ha: 31 g ai/ha; for pest or weed control at 125 g/ha: 125 g ai/ha
Procedure, shortened: as §1

corn (Zea mays) = experiment: Test A postemergence; settings: Zea mays, post-emergence, 240 h, 0 to 100 scale; for Corn plant response rating (crop injury, 0 = no effect, 100 = complete kill) at 31 g/ha: 31 g ai/ha; for Corn plant response rating (crop injury, 0 = no effect, 100 = complete kill) at 125 g/ha: 125 g ai/ha
Procedure, shortened: as §1

[8] = system: blackgrass (Alopecurus myosuroides); experiment: Test A postemergence; settings: Alopecurus myosuroides, post-emergence, 240 h, 0 to 100 scale, read-out: Plant response rating, Blackgrass; for pest or weed control at 31 g/ha: 31 g ai/ha; for pest or weed control at 125 g/ha: 125 g ai/ha
Procedure, shortened: as §1

[9] = system: Italian ryegrass (Lolium multiflorum); experiment: Test A postemergence; settings: Lolium multiflorum, post-emergence, 240 h, 0 to 100 scale, read-out: Plant response rating, Ryegrass, Italian; for pest or weed control at 31 g/ha: 31 g ai/ha; for pest or weed control at 125 g/ha: 125 g ai/ha
Procedure, shortened: as §1

kochia (Kochia scoparia) [10] = experiment: Test A preemergence; settings: Bassia scoparia, pre-emergence, 240 h, 0 to 100 scale (0 no effect, 100 complete control), read-out: Kochia plant response rating; for pest or weed control at 31 g/ha: 31 g ai/ha; for pest or weed control at 125 g/ha: 125 g ai/ha
Procedure, shortened: as §1

[11] = system: pigweed (Amaranthus retroflexus); experiment: Test A preemergence; settings: Amaranthus retroflexus, pre-emergence, 240 h, 0 to 100 scale (0 no effect, 100 complete control), read-out: Pigweed plant response rating; for pest or weed control at 31 g/ha: 31 g ai/ha; for pest or weed control at 125 g/ha: 125 g ai/ha
Procedure, shortened: as §1

[12] = system: barnyardgrass (Echinochloa crus-galli); experiment: Test A preemergence; settings: Echinochloa crus-galli, pre-emergence, 240 h, 0 to 100 scale (0 no effect, 100 complete control), read-out: Barnyardgrass plant response rating; for pest or weed control at 31 g/ha: 31 g ai/ha; for pest or weed control at 125 g/ha: 125 g ai/ha
Procedure, shortened: as §1

[13] = system: ragweed (common ragweed, Ambrosia elatior); experiment: Test A preemergence; settings: Ambrosia artemisiifolia, pre-emergence, 240 h, 0 to 100 scale (0 no effect, 100 complete control), read-out: Ragweed plant response rating; for pest or weed control at 31 g/ha: 31 g ai/ha; for pest or weed control at 125 g/ha: 125 g ai/ha
Procedure, shortened: as §1

[14] = system: giant foxtail (Setaria faberii); experiment: Test A preemergence; settings: Setaria faberi, pre-emergence, 240 h, 0 to 100 scale (0 no effect, 100 complete control), read-out: Foxtail, Giant plant response rating; for pest or weed control at 31 g/ha: 31 g ai/ha; for pest or weed control at 125 g/ha: 125 g ai/ha
Procedure, shortened: as §1

[15] = system: Italian ryegrass (Lolium multiflorum); experiment: Test A preemergence; settings: Lolium multiflorum, pre-emergence, 240 h, 0 to 100 scale (0 no effect, 100 complete control), read-out: Ryegrass, Italian plant response rating; for pest or weed control at 31 g/ha: 31 g ai/ha; for pest or weed control at 125 g/ha: 125 g ai/ha
Procedure, shortened: as §1

[16] = system: barnyardgrass (Echinochloa crus-galli); experiment: Test B flooded paddy; settings: Echinochloa crus-galli, 336 h; 250 g ai/ha, Flood, 13 to 15 days, scale 0 (no effect) to 100 (complete control); read-out: Plant response rating, Barnyardgrass
Procedure, shortened: (§2)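 Visual injury ratings against untreated controls, taken 13 to 15 days after compound was added to paddy water standing 3 cm above the soil.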

[17] = system: sedge, umbrella (small-flower umbrella sedge, Cyperus difformis); experiment: Test B flooded paddy; settings: Cyperus difformis, 336 h; 250 g ai/ha, Flood, 13 to 15 days, scale 0 (no effect) to 100 (complete control); read-out: Plant response rating, Sedge, Umbrella
Procedure, shortened: as §2

[18] = system: ducksalad (Heteranthera limosa); experiment: Test B flooded paddy; settings: Heteranthera limosa, 336 h; 250 g ai/ha, Flood, 13 to 15 days, scale 0 (no effect) to 100 (complete control); read-out: Plant response rating, Ducksalad
Procedure, shortened: as §2

rice (Oryza sativa) = experiment: Test B flooded paddy; settings: Oryza sativa, 336 h; 250 g ai/ha, Flood, 13 to 15 days, scale 0 (no effect) to 100 (complete control); read-out: Plant response rating, Rice
Procedure, shortened: as §2

| SMILES | pest or weed control at 31 g/ha (kochia (Kochia scoparia) [1]) [%] | pest or weed control at 125 g/ha (kochia (Kochia scoparia) [1]) [%] | pest or weed control at 31 g/ha [2] [%] | pest or weed control at 125 g/ha [2] [%] | plant injury at 31 g/ha [3] [%] | plant injury at 125 g/ha [3] [%] | pest or weed control at 31 g/ha [4] [%] | pest or weed control at 125 g/ha [4] [%] | pest or weed control at 31 g/ha [5] [%] | pest or weed control at 125 g/ha [5] [%] | pest or weed control at 31 g/ha [6] [%] | pest or weed control at 125 g/ha [6] [%] | pest or weed control at 31 g/ha [7] [%] | pest or weed control at 125 g/ha [7] [%] | Corn plant response rating (crop injury, 0 = no effect, 100 = complete kill) at 31 g/ha (corn (Zea mays)) [%] | Corn plant response rating (crop injury, 0 = no effect, 100 = complete kill) at 125 g/ha (corn (Zea mays)) [%] | pest or weed control at 31 g/ha [8] [%] | pest or weed control at 125 g/ha [8] [%] | pest or weed control at 31 g/ha [9] [%] | pest or weed control at 125 g/ha [9] [%] | other results |
| --- | --- | --- | --- | --- | --- | --- | --- | --- | --- | --- | --- | --- | --- | --- | --- | --- | --- | --- | --- | --- | --- |
| FC(F)c1cccc(Oc2ncc(Br)cn2)c1Oc1ncc(Cl)cn1 [Compound 41] | 50 | 90 | 60 | 80 | 0 | 20 | 100 | 100 | 40 | 80 | 30 | 50 | 30 | 90 | 10 | 50 | 40 | 80 | 30 | 60 | pest or weed control at 31 g/ha (kochia (Kochia scoparia) [10]): 70%; pest or weed control at 125 g/ha (kochia (Kochia scoparia) [10]): 100%; pest or weed control at 31 g/ha [11]: 100%; pest or weed control at 125 g/ha [11]: 100%; pest or weed control at 31 g/ha [12]: 20%; pest or weed control at 125 g/ha [12]: 80%; pest or weed control at 31 g/ha [13]: 0%; pest or weed control at 125 g/ha [13]: 60%; pest or weed control at 31 g/ha [14]: 100%; pest or weed control at 125 g/ha [14]: 100%; pest or weed control at 31 g/ha [15]: 0%; pest or weed control at 125 g/ha [15]: 30%; pest or weed control at 250 g/ha [16]: 0%; pest or weed control at 250 g/ha [17]: 40%; pest or weed control at 250 g/ha [18]: 30%; plant injury at 250 g/ha (rice (Oryza sativa)): 0% |
| FCc1cccc(Oc2ncc(Cl)cn2)c1Oc1ncc(Cl)cn1 [Compound 44] | 50 | 80 | 70 | 80 | 20 | 80 | 30 | 70 | 20 | 90 | 20 | 70 | 10 | 90 | 20 | 70 | 40 | 80 | 20 | 30 | pest or weed control at 31 g/ha (kochia (Kochia scoparia) [10]): 60%; pest or weed control at 125 g/ha (kochia (Kochia scoparia) [10]): 100%; pest or weed control at 31 g/ha [11]: 100%; pest or weed control at 125 g/ha [11]: 100%; pest or weed control at 31 g/ha [12]: 20%; pest or weed control at 125 g/ha [12]: 100%; pest or weed control at 31 g/ha [13]: 0%; pest or weed control at 125 g/ha [13]: 40%; pest or weed control at 31 g/ha [14]: 90%; pest or weed control at 125 g/ha [14]: 100%; pest or weed control at 31 g/ha [15]: 0%; pest or weed control at 125 g/ha [15]: 20%; pest or weed control at 250 g/ha [16]: 40%; pest or weed control at 250 g/ha [17]: 75%; pest or weed control at 250 g/ha [18]: 95%; plant injury at 250 g/ha (rice (Oryza sativa)): 40% |

From patent US20170190671A1, “BIS(ARYL)CATECHOL DERIVATIVES AS HERBICIDES” (E I DU PONT DE NEMOURS AND COMPANY, priority 2014, published 2017)
